Source: US20130065818A1, “Arylamide Compounds And Compositions And Uses Thereof” (POLYMEDIX, priority 2006, published 2013)
Values after ≈ are worked out from the molar mass of the structure shown. Like-named read-outs stand apart in the source and are kept apart here.

Tested on: E. coli D31
Experiment: MIC, control bacteria (Example 8)
Assay type: cell-based
Procedure: • Mueller-Hinton Broth in tubes was inoculated with 25 ocular isolates of Staphylococcus aureus fluoroquinolone-susceptible, Staphylococcus aureus fluoroquinolone-resistant, Staphylococcus epidermidis (Coagulase-negative Staphylococcus) fluoroquinolone-susceptible, Staphylococcus epidermidis (Coagulase-negative Staphylococcus) fluoroquinolone-resistant, Pseudomonas aeruginosa and Serratia marcescens, plus two controls (Staphylococcus aureus and E. coli) and incubated at 37° C. overnight on a shaker set at 250 rpm.
Control Bacteria—The two control bacteria (Staphylococcus aureus and E. coli) were treated as above.
Control Bacteria Set #1—this set of control bacteria were treated as the Streptococcus pneumoniae, Streptococcus viridans and Moraxella species (including Moraxella catarrhalis) test isolates above; the control bacteria underwent the same conditions as the test Streptococcus pneumoniae, Streptococcus viridans and Moraxella species (including Moraxella catarrhalis) isolates. This set of control bacteria was to determine whether there was a difference in the MICs by performing the MIC determinations in 2% lysed horse red blood cells with the standard method performed in Mueller-Hinton broth.
Control Bacteria Set #2—the control bacteria were added to 5 ml of Mueller-Hinton Broth without the 2% lysed horse red blood cells to achieve the standard inoculum concentration. This set of control bacteria is the normal control to determine whether the compounds are at the target MICs.
Control Bacteria Set #1—this set of control bacteria were treated as the Haemophilus influenzae test isolates above; the control bacteria underwent the same conditions as the test Haemophilus influenzae isolates. This set of control bacteria is to determine whether there was a difference in the MICs by performing the MIC determinations in HTM broth with the standard method performed in Mueller-Hinton broth.
Control Bacteria Set #2—the control bacteria were added to 5 ml of Mueller-Hinton Broth to achieve the standard inoculum concentration. This set of control bacteria is the normal control to determine whether the compounds are at the target MICs.
Ninety μl of the bacterial suspensions was dispensed in each well from column 1 to column 12. Each bacterial isolate was placed in one row of a 96 well polypropylene plate containing the test agents. The plates were placed on shaker at 15 minutes at room temperature, and then incubated at 37° C. overnight. MICs were determined visually as the lowest concentration of drug that inhibits visible bacterial growth.

**Q.** `N=C(N)NCCCCC(=O)Nc1cc(C(F)(F)F)cc(NC(=O)c2cc(C(=O)Nc3cc(C(F)(F)F)cc(NC(=O)CCCCNC(=N)N)c3O[C@@H]3CCNC3)ncn2)c1O[C@@H]1CCNC1` [Oligomer 4] was tested. Which “Decrease of activity by addition of 2% lysed horse red blood cells to Mueller-Hinton broth” value (Control Bacteria E. coli D31) did it give?
**A.** approximately 4 fold

**Q.** And the “Decrease of activity by use of HTM broth” value (Control Bacteria E. coli D31)?
**A.** approximately 8 fold

**Q.** And the MIC (Control Bacteria Set #1, run with Haemophilus influenzae MIC test, read-out: MIC)?
**A.** 8 µg/mL (≈ 8.54 µM)

**Q.** What about the MIC (E. coli D31, Control for MIC Test SA-FQR, first batch) of the same compound?
**A.** 1 µg/mL (≈ 1.07 µM)

**Q.** And the MIC (E. coli D31, Control for MIC Test SA-FQS, first batch)?
**A.** 1 µg/mL (≈ 1.07 µM)

**Q.** What about the MIC (E. coli D31, new batches, Control Only 1) of the same compound?
**A.** 1 µg/mL (≈ 1.07 µM)

**Q.** What about the MIC (E. coli D31, new batches, Control Only 2) of the same compound?
**A.** 1 µg/mL (≈ 1.07 µM)

**Q.** And the MIC (E. coli D31, new batches, Control Only 3)?
**A.** 1 µg/mL (≈ 1.07 µM)

**Q.** And the MIC (E. coli D31, new batches, Control Only 4)?
**A.** 1 µg/mL (≈ 1.07 µM)

**Q.** And the MIC (E. coli Lab Strain D31)?
**A.** 0.78 µg/mL (≈ 0.833 µM)

**Q.** And the MIC (Escherichia coli, D31, Control Bacteria Set #1, run with Moraxella MIC test, read-out: MIC)?
**A.** 4 µg/mL (≈ 4.27 µM)

**Q.** What about the MIC (Escherichia coli, D31, Control Only 1, read-out: MIC of control bacteria on day of MIC testing) of the same compound?
**A.** 1 µg/mL

**Q.** And the MIC (Escherichia coli, D31, Control Only 2, read-out: MIC of control bacteria on day of MIC testing)?
**A.** 1 µg/mL

**Q.** And the MIC (Escherichia coli, D31, Control Only 3, read-out: MIC of control bacteria on day of MIC testing)?
**A.** 1 µg/mL

**Q.** What about the MIC (Escherichia coli, D31, Control Only 4, read-out: MIC of control bacteria on day of MIC testing) of the same compound?
**A.** 1 µg/mL

**Q.** What about the MIC (Escherichia coli, D31, E. coli D31, Control Bacteria Set #1 (same conditions as test isolates), run with Streptococcus pneumoniae MIC test, read-out: MIC) of the same compound?
**A.** 2 µg/mL (≈ 2.13 µM)

**Q.** What about the MIC (Escherichia coli, D31, E. coli D31, Control Bacteria Set #1 (same conditions as test isolates), run with Streptococcus viridans group MIC test, read-out: MIC) of the same compound?
**A.** 2 µg/mL (≈ 2.13 µM)

**Q.** And the MIC (Escherichia coli, D31, E. coli D31, Control Bacteria Set #2 (Mueller-Hinton Broth), run with Streptococcus pneumoniae MIC test, read-out: MIC)?
**A.** 0.5 µg/mL (≈ 0.534 µM)

**Q.** What about the MIC (Escherichia coli, D31, E. coli D31, Control Bacteria Set #2 (Mueller-Hinton Broth), run with Streptococcus viridans group MIC test, read-out: MIC) of the same compound?
**A.** 0.5 µg/mL (≈ 0.534 µM)

**Q.** And the MIC (Escherichia coli, D31, E. coli D31, control bacteria run with Pseudomonas aeruginosa MIC test, read-out: MIC)?
**A.** 0.5 µg/mL (≈ 0.534 µM)

**Q.** What about the MIC (Escherichia coli, D31, E. coli D31, control bacteria run with S. aureus fluoroquinolone-resistant MIC test, read-out: MIC) of the same compound?
**A.** 1 µg/mL (≈ 1.07 µM)

**Q.** And the MIC (Escherichia coli, D31, E. coli D31, control bacteria run with S. aureus fluoroquinolone-susceptible MIC test, read-out: MIC)?
**A.** 1 µg/mL (≈ 1.07 µM)

**Q.** What about the MIC (Escherichia coli, D31, E. coli D31, control bacteria run with S. epidermidis fluoroquinolone-resistant MIC test, read-out: MIC) of the same compound?
**A.** 1 µg/mL (≈ 1.07 µM)

**Q.** And the MIC (Escherichia coli, D31, E. coli D31, control bacteria run with S. epidermidis fluoroquinolone-susceptible MIC test, read-out: MIC)?
**A.** 1 µg/mL (≈ 1.07 µM)

**Q.** What about the MIC (Escherichia coli, D31, E. coli D31, control bacteria run with Serratia marcescens MIC test, read-out: MIC) of the same compound?
**A.** 0.5 µg/mL (≈ 0.534 µM)

**Q.** And the MIC (Escherichia coli, D31, E. coli D31, MIC previously obtained (target MIC), printed in parentheses, read-out: MIC for Control Bacteria within the parentheses)?
**A.** 0.78 µg/mL (≈ 0.833 µM)

**Q.** And the MIC (Escherichia coli, D31, E. coli D31, read-out: MIC)?
**A.** 0.78 µg/mL (≈ 0.833 µM)

**Q.** And the MIC (Escherichia coli, D31, control for MIC test HI (Control Bacteria Set #2), read-out: MIC of control bacteria on day of MIC testing)?
**A.** 1 µg/mL

**Q.** What about the MIC (Escherichia coli, D31, control for MIC test MS (Control Bacteria Set #2), read-out: MIC of control bacteria on day of MIC testing) of the same compound?
**A.** 1 µg/mL

**Q.** And the MIC (Escherichia coli, D31, control for MIC test PA, read-out: MIC of control bacteria on day of MIC testing)?
**A.** 0.5 µg/mL

**Q.** And the MIC (Escherichia coli, D31, control for MIC test SA-FQR, read-out: MIC of control bacteria on day of MIC testing)?
**A.** 1 µg/mL

**Q.** What about the MIC (Escherichia coli, D31, control for MIC test SA-FQS, read-out: MIC of control bacteria on day of MIC testing) of the same compound?
**A.** 1 µg/mL

**Q.** What about the MIC (Escherichia coli, D31, control for MIC test SE-FQR, read-out: MIC of control bacteria on day of MIC testing) of the same compound?
**A.** 1 µg/mL

**Q.** And the MIC (Escherichia coli, D31, control for MIC test SE-FQS, read-out: MIC of control bacteria on day of MIC testing)?
**A.** 1 µg/mL

**Q.** And the MIC (Escherichia coli, D31, control for MIC test SM, read-out: MIC of control bacteria on day of MIC testing)?
**A.** 0.5 µg/mL

**Q.** What about the MIC (Escherichia coli, D31, control for MIC test SP, read-out: MIC of control bacteria on day of MIC testing) of the same compound?
**A.** 0.5 µg/mL

**Q.** And the MIC (Escherichia coli, D31, control for MIC test SV, read-out: MIC of control bacteria on day of MIC testing)?
**A.** 0.5 µg/mL

**Q.** And the MIC (Escherichia coli, D31, reference MIC printed in parentheses beside the day's control value, read-out: MIC for Control Bacteria (within the parentheses))?
**A.** 0.78 µg/mL (≈ 0.833 µM)
